Source: ChEMBL document CHEMBL3046822, “Synthesis, antiplatelet aggregation activity, and molecular modeling study of novel substituted-piperazine analogues” (2011)
Calls of active or inactive are those of the source. The rule behind the calls is not given here.

Tests used:
Platelet [1] = assay: Antiaggregating activity in Homo sapiens (human) platelet rich plasma assessed as inhibition of adrenaline-induced platelet aggregation at 2.5 uM incubated for 4 min prior to adrenaline-induction measured for 5.5 min by turbidometric analysis; type: functional, cell-free
Platelet [2] = assay: Antiaggregating activity in Homo sapiens (human) platelet rich plasma assessed as inhibition of ADP-induced platelet aggregation at 1 uM incubated for 4 min prior to ADP-induction measured for 5.5 min by turbidometric analysis; type: functional, cell-free
Platelet [3] = assay: Antiaggregating activity in Homo sapiens (human) platelet rich plasma assessed as collagen-induced platelet aggregation at 0.25 uM incubated for 4 min prior to collagen-induction measured for 5.5 min by turbidometric analysis (reference value: 50 to 98%); type: functional
[4] = Antiaggregating activity in Homo sapiens (human) platelet rich plasma assessed as ristocetin-induced platelet aggregation at 1 uM incubated for 4 min prior to ristocetin-induction measured for 5.5 min by turbidometric analysis (reference value: 65 to 99%); type: functional
Platelet [5] = assay: Antiaggregating activity in Homo sapiens (human) platelet rich plasma assessed as inhibition of arachidonic acid-induced platelet aggregation at 2.5 uM incubated for 4 min prior to arachidonic acid-induction measured for 5.5 min by turbidometric analysis; type: functional, cell-free
Platelet [6] = assay: Antiaggregating activity in Homo sapiens (human) platelet rich plasma assessed as inhibition of collagen-induced platelet aggregation at 1 uM incubated for 4 min prior to collagen-induction measured for 5.5 min by turbidometric analysis; type: functional, cell-free
Platelet [7] = assay: Antiaggregating activity in Homo sapiens (human) platelet rich plasma assessed as inhibition of collagen-induced platelet aggregation at 2.5 uM incubated for 4 min prior to collagen-induction measured for 5.5 min by turbidometric analysis; type: functional, cell-free
Platelet [8] = assay: Antiaggregating activity in Homo sapiens (human) platelet rich plasma assessed as inhibition of adrenaline-induced platelet aggregation at 1 uM incubated for 4 min prior to adrenaline-induction measured for 5.5 min by turbidometric analysis; type: functional, cell-free
Platelet [9] = assay: Antiaggregating activity in Homo sapiens (human) platelet rich plasma assessed as inhibition of arachidonic acid-induced platelet aggregation at 1 uM incubated for 4 min prior to arachidonic acid-induction measured for 5.5 min by turbidometric analysis; type: functional, cell-free
Platelet [10] = assay: Antiaggregating activity in Homo sapiens (human) platelet rich plasma assessed as inhibition of ADP-induced platelet aggregation at 2.5 uM incubated for 4 min prior to ADP-induction measured for 5.5 min by turbidometric analysis; type: functional, cell-free
Platelet [11] = assay: Antiaggregating activity in Homo sapiens (human) platelet rich plasma assessed as inhibition of adrenaline-induced platelet aggregation at 2 uM incubated for 4 min prior to adrenaline-induction measured for 5.5 min by turbidometric analysis; type: functional, cell-free
Platelet [12] = assay: Antiaggregating activity in Homo sapiens (human) platelet rich plasma assessed as inhibition of ADP-induced platelet aggregation at 2 uM incubated for 4 min prior to ADP-induction measured for 5.5 min by turbidometric analysis; type: functional, cell-free
Platelet [13] = assay: Antiaggregating activity in Homo sapiens (human) platelet rich plasma assessed as inhibition of arachidonic acid-induced platelet aggregation at 2 uM incubated for 4 min prior to arachidonic acid-induction measured for 5.5 min by turbidometric analysis; type: functional, cell-free
[14] = Antiaggregating activity in Homo sapiens (human) platelet rich plasma assessed as ristocetin-induced platelet aggregation at 2 uM incubated for 4 min prior to ristocetin-induction measured for 5.5 min by turbidometric analysis (reference value: 65 to 99%); type: functional
Platelet [15] = assay: Antiaggregating activity in Homo sapiens (human) platelet rich plasma assessed as inhibition of collagen-induced platelet aggregation at 2 uM incubated for 4 min prior to collagen-induction measured for 5.5 min by turbidometric analysis; type: functional, cell-free
Platelet [16] = assay: Antiaggregating activity in Homo sapiens (human) platelet rich plasma assessed as inhibition of adrenaline-induced platelet aggregation at 0.5 uM incubated for 4 min prior to adrenaline-induction measured for 5.5 min by turbidometric analysis; type: functional, cell-free
[17] = Antiaggregating activity in Homo sapiens (human) platelet rich plasma assessed as ristocetin-induced platelet aggregation at 0.25 uM incubated for 4 min prior to ristocetin-induction measured for 5.5 min by turbidometric analysis (reference value: 65 to 99%); type: functional
Platelet [18] = assay: Antiaggregating activity in Homo sapiens (human) platelet rich plasma assessed as inhibition of ADP-induced platelet aggregation at 0.5 uM incubated for 4 min prior to ADP-induction measured for 5.5 min by turbidometric analysis; type: functional, cell-free
Platelet [19] = assay: Antiaggregating activity in Homo sapiens (human) platelet rich plasma assessed as inhibition of arachidonic acid-induced platelet aggregation at 0.25 uM incubated for 4 min prior to arachidonic acid-induction measured for 5.5 min by turbidometric analysis; type: functional, cell-free
[20] = Antiaggregating activity in Homo sapiens (human) platelet rich plasma assessed as disaggregation of ADP-induced platelet aggregation at 0.25 uM incubated for 4 min prior to ADP-induction measured for 5.5 min by turbidometric analysis relative to control; type: functional
[21] = Antiaggregating activity in Homo sapiens (human) platelet rich plasma assessed as ristocetin-induced platelet aggregation at 0.5 uM incubated for 4 min prior to ristocetin-induction measured for 5.5 min by turbidometric analysis (reference value: 65 to 99%); type: functional
Platelet [22] = assay: Antiaggregating activity in Homo sapiens (human) platelet rich plasma assessed as inhibition of adrenaline-induced platelet aggregation at 0.25 uM incubated for 4 min prior to adrenaline-induction measured for 5.5 min by turbidometric analysis; type: functional, cell-free
Platelet [23] = assay: Antiaggregating activity in Homo sapiens (human) platelet rich plasma assessed as inhibition of arachidonic acid-induced platelet aggregation at 0.5 uM incubated for 4 min prior to arachidonic acid-induction measured for 5.5 min by turbidometric analysis; type: functional
Platelet [24] = assay: Antiaggregating activity in Homo sapiens (human) platelet rich plasma assessed as inhibition of collagen-induced platelet aggregation at 0.25 uM incubated for 4 min prior to collagen-induction measured for 5.5 min by turbidometric analysis; type: functional
Platelet [25] = assay: Antiaggregating activity in Homo sapiens (human) platelet rich plasma assessed as inhibition of collagen-induced platelet aggregation at 0.5 uM incubated for 4 min prior to collagen-induction measured for 5.5 min by turbidometric analysis; type: functional, cell-free
[26] = Antiaggregating activity in Homo sapiens (human) platelet rich plasma assessed as collagen-induced platelet aggregation at 0.5 uM incubated for 4 min prior to collagen-induction measured for 5.5 min by turbidometric analysis (reference value: 50 to 98%); type: functional
[27] = Antiaggregating activity in Homo sapiens (human) platelet rich plasma assessed as arachidonic acid-induced platelet aggregation at 1 uM incubated for 4 min prior to arachidonic acid-induction measured for 5.5 min by turbidometric analysis (reference value: 55 to 100%); type: functional
Platelet [28] = assay: Antiaggregating activity in Homo sapiens (human) platelet rich plasma assessed as inhibition of arachidonic acid-induced platelet aggregation at 5 uM incubated for 4 min prior to arachidonic acid-induction measured for 5.5 min by turbidometric analysis; type: functional, cell-free
Platelet [29] = assay: Antiaggregating activity in Homo sapiens (human) platelet rich plasma assessed as inhibition of ristocetin-induced platelet aggregation at 5 uM incubated for 4 min prior to ristocetin-induction measured for 5.5 min by turbidometric analysis; type: functional, cell-free
Platelet [30] = assay: Antiaggregating activity in Homo sapiens (human) platelet rich plasma assessed as inhibition of ADP-induced platelet aggregation at 5 uM incubated for 4 min prior to ADP-induction measured for 5.5 min by turbidometric analysis; type: functional, cell-free
[31] = Antiaggregating activity in Homo sapiens (human) platelet rich plasma assessed as ADP-induced platelet aggregation at 0.5 uM incubated for 4 min prior to ADP-induction measured for 5.5 min by turbidometric analysis (reference value: 54 to 88%); type: functional
Platelet [32] = assay: Antiaggregating activity in Homo sapiens (human) platelet rich plasma assessed as inhibition of adrenaline-induced platelet aggregation at 5 uM incubated for 4 min prior to adrenaline-induction measured for 5.5 min by turbidometric analysis; type: functional, cell-free
[33] = Antiaggregating activity in Homo sapiens (human) platelet rich plasma assessed as disaggregation of ADP-induced platelet aggregation at 1 uM incubated for 4 min prior to ADP-induction measured for 5.5 min by turbidometric analysis relative to control; type: functional
Platelet [34] = assay: Antiaggregating activity in Homo sapiens (human) platelet rich plasma assessed as inhibition of collagen-induced platelet aggregation at 5 uM incubated for 4 min prior to collagen-induction measured for 5.5 min by turbidometric analysis; type: functional, cell-free
[35] = Antiaggregating activity in Homo sapiens (human) platelet rich plasma assessed as arachidonic acid-induced platelet aggregation at 0.5 uM incubated for 4 min prior to arachidonic acid-induction measured for 5.5 min by turbidometric analysis (reference value: 55 to 100%); type: functional
[36] = Antiaggregating activity in Homo sapiens (human) platelet rich plasma assessed as ristocetin-induced platelet aggregation at 0.1 uM incubated for 4 min prior to ristocetin-induction measured for 5.5 min by turbidometric analysis (reference value: 65 to 99%); type: functional
Platelet [37] = assay: Antiaggregating activity in Homo sapiens (human) platelet rich plasma assessed as inhibition of ADP-induced platelet aggregation at 0.25 uM incubated for 4 min prior to ADP-induction measured for 5.5 min by turbidometric analysis; type: functional, cell-free
[38] = Antiaggregating activity in Homo sapiens (human) platelet rich plasma assessed as ADP-induced platelet aggregation at 0.1 uM incubated for 4 min prior to ADP-induction measured for 5.5 min by turbidometric analysis (reference value: 54 to 88%); type: functional
[39] = Antiaggregating activity in Homo sapiens (human) platelet rich plasma assessed as collagen-induced platelet aggregation at 0.1 uM incubated for 4 min prior to collagen-induction measured for 5.5 min by turbidometric analysis (reference value: 50 to 98%); type: functional
[40] = Antiaggregating activity in Homo sapiens (human) platelet rich plasma assessed as arachidonic acid-induced platelet aggregation at 0.1 uM incubated for 4 min prior to arachidonic acid-induction measured for 5.5 min by turbidometric analysis (reference value: 55 to 100%); type: functional
Platelet [41] = assay: Antiaggregating activity in Homo sapiens (human) platelet rich plasma assessed as inhibition of adrenaline-induced platelet aggregation at 0.1 uM incubated for 4 min prior to adrenaline-induction measured for 5.5 min by turbidometric analysis; type: functional, cell-free

Row | Structure (SMILES) | inhibition (Platelet [1]) | inhibition (Platelet [2]) | inhibition (Platelet [3]) | Activity [4] [%] | inhibition (Platelet [5]) | inhibition (Platelet [6]) | inhibition (Platelet [7]) | inhibition (Platelet [8]) | inhibition (Platelet [9]) | inhibition (Platelet [10]) | inhibition (Platelet [11]) | inhibition (Platelet [12]) | inhibition (Platelet [13]) | Activity [14] [%] | inhibition (Platelet [15]) | inhibition (Platelet [16]) | Activity [17] [%] | inhibition (Platelet [18]) | Activity [21] [%] | inhibition (Platelet [23]) | also measured
1 | Cl.Cl.O=C(C1CCCN(Cc2ccccc2F)C1)N1CCN(C(=O)C2CCCN(Cc3ccccc3F)C2)CC1 (stereo not given) | Active | Active | Active | 64 | Active | Active | Active | Active | Active | Active | – | – | – | – | – | – | – | – | – | – | –
2 | Cl.Cl.O=C(C1CCCN(Cc2ccccc2)C1)N1CCN(C(=O)C2CCCN(Cc3ccccc3)C2)CC1 (stereo not given) | – | – | – | – | – | – | – | – | – | – | Active | Active | Active | 9 | Active | – | – | – | – | – | –
3 | Cl.O=C(c1ccc(Br)cc1)N1CCCC(C(=O)N2CCN(c3ccccc3Cl)CC2)C1 (stereo not given) | Active | – | Active | – | Active | – | Active | – | – | Active | – | – | – | – | – | Active | 81 | Active | 75 | Active | inhibition (Platelet [19]): Active; Activity [20]: 47%; inhibition (Platelet [22]): Active; inhibition (Platelet [24]): Active; inhibition (Platelet [25]): Active
4 | Cl.Cl.O=C(C1CCCN(Cc2ccc(CN3CCCC(C(=O)N4CCN(c5ncccn5)CC4)C3)cc2)C1)N1CCN(c2ncccn2)CC1 (stereo not given) | – | Active | – | 58 | – | Active | – | Active | Active | – | – | – | – | – | – | Active | – | Active | 92 | Active | Activity [26]: 23%
5 | O=C(c1ccc[n+](Cc2ccccc2F)c1)N1CCN(c2ccccc2Cl)CC1.[Cl-] | – | – | – | 85 | – | Active | – | Active | – | – | Active | Active | Active | 66 | Active | Active | – | – | 89 | – | Activity [27]: 80%; inhibition (Platelet [28]): Active; inhibition (Platelet [29]): Active; Activity [26]: 90%; inhibition (Platelet [30]): Active; Activity [31]: 71%; inhibition (Platelet [32]): Active; Activity [33]: 55%; inhibition (Platelet [34]): Active; Activity [35]: 71%
6 | Cl.O=C(C1CCCN(Cc2ccccc2)C1)N1CCN(c2ccccc2Cl)CC1 (stereo not given) | – | Active | – | 22 | – | Active | – | Active | Active | – | – | – | – | – | – | Active | 30 | Active | 26 | Active | Activity [36]: 90%; inhibition (Platelet [19]): Active; inhibition (Platelet [28]): Active; inhibition (Platelet [29]): Active; inhibition (Platelet [22]): Active; inhibition (Platelet [37]): Active; inhibition (Platelet [30]): Active; Activity [38]: 86%; inhibition (Platelet [24]): Active; Activity [39]: 100%; inhibition (Platelet [32]): Active; inhibition (Platelet [34]): Active; inhibition (Platelet [25]): Active; Activity [40]: 23%; inhibition (Platelet [41]): Active
